Columns and labels:
[1] = tested on: sclerostin loop2‐ApoER2 interaction; test: BLI blockade of ApoER2 - sclerostin loop2 binding by pretreatment with ApoER2‐Pep; conditions: His‐ApoER2 on HIS1K biosensors, sclerostin loop2 pretreated with ApoER2‐Pep, Figure 6F, listed as ApoER2‐LA7
Method: Biolayer interferometry (BLI) analysis was performed on the Biomolecular Interaction Analyzer (ForteBio, Octet RED96e). To determine the binding affinity between ApoER2 and sclerostin, the ApoER2 protein (R&D, 3520‐AR) was biotinylated using 10 mM EZ‐Link Sulfo‐NHS‐LC‐LC‐Biotin (Thermo Scientific, 21 343) in a molar ratio of 1:20 for 2 h at 4 °C. The Slide‐A‐Lyzer Dialysis Cassettes (Thermo Scientific, 66 382) were used for excess biotin removal.^[ [61] ^] […] (SA) tray biosensors (Sartorius, 18‐5019) were used to load biotin‐ApoER2 proteins. Biosensors were pre‐wet for 10 min using 200 µL PBS containing 0.02% Tween 20 (v/v) in a 96‐well plate. To determine the binding affinity between sclerostin loop2 and ApoER2‐LA7, anti‐penta‐HIS (HIS1K) biosensors (Sartorius, 18‐5102) were used to load His‐sclerostin loop2, the sclerostin loop2‐loaded biosensors were immersed in the ApoER2‐LA7 with different concentrations. […] Raw data were analyzed using Data Analysis Software (ForteBio, v8.1). All Kd values were calculated after deducting the non‐specific binding between the biosensors and the samples.^[ [62], [63] ^]
Target sequence in this assay (Q99P68 107-132 limits assumed): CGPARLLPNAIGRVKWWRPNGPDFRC

[2] = tested on: sclerostin loop2‐ApoER2 interaction; test: ApoER2‐Pep blockade of sclerostin effects in ApoER2 overexpressing, LPS‐induced RAW 264.7 macrophages; type: cell-based, mouse
Method: In ApoER2‐Pep‐mediated structure‐function studies in vitro, RAW 264.7 cells were divided into 4 groups (n = 3 per group), including (1) Control, (2) LPS, (3) Lrp8 + LPS + SOST, and (4) Lrp8 + LPS + SOST + ApoER2‐Pep. Cells in groups (3) and (4) were transfected with Lrp8 plasmids encoding ApoER2, while cells in groups (1) and (2) were kept untreated. 24 h later, cells in group (3) were treated with recombinant sclerostin (SOST, 1 µM), while cells in group (4) were treated with recombinant sclerostin (1 µM) and ApoER2‐Pep (2 µM) for 3 h. Then, cells in groups (2), (3), and (4) were treated with LPS (1 µg/mL) for 18 h. All groups of cells were collected for determining the mRNA expression levels of TNF‐α, MCP‐1, and IL‐10 by RT‐PCR. Cell mediums were collected for determining the protein expression/secretion levels of mouse TNF‐α, mouse MCP‐1, and mouse IL‐10 by ELISA.
Total RNA was extracted from cells following the protocols of Trizol reagent (Invitrogen, 15 596 026). Reverse‐transcription was performed to obtain cDNA using HiScript III RT SuperMix kit (Vazyme, R323), and RT‐PCR was accomplished using a HiScript III RT SuperMix kit (Vazyme, R323) in a QuantStudio 7 PRO System (Applied Biosystems). The relative gene expression levels were calculated using the 2^−ΔΔCt method with GAPDH as the reference gene.^[ [40] ^] The primers were as follows: mouse GAPDH (F: […], R: GGGGTCGTTGATGGCAAC), mouse NF‐κB (p65, F: […], R: […]), mouse TNF‐α (F: […], R: […]), mouse MCP‐1 (F: […], R: […]), mouse IL‐10 (F: […], R: […]), human GAPDH (F: […], R: […]), human TNF‐α (F: […], R: […]), human MCP‐1 (F: […], R: […]) and human IL‐10 (F: […], R: […]).

[3] = tested on: sclerostin‐knockout macrophages (RAW264.7); test: Effect of ApoER2‐LA7 on LPS‐induced cytokine mRNA in sclerostin‐knockout macrophages (RAW264.7); type: cell-based, mouse; conditions: sclerostin‐knockout RAW264.7, after LPS induction, n = 3; Figure S7C
[4] = tested on: SOST^ki.ApoE^−/− mice; test: Aortic aneurysm, atherosclerosis and inflammatory responses in SOST^ki.ApoE^−/− mice with AngII infusion; type: in vivo, mouse; conditions: 10 mg/kg/day subcutaneous, four weeks, versus veh and Rseq‐Pep groups, n = 12
Method: (§1) Aortic aneurysm (AA), atherosclerosis, and inflammatory responses were induced in ApoE^−/− mice with AngII infusion as previously described.^[ [15] ^] In brief, osmotic minipumps (Model 1004, ALZET, Durect Corporation) were implanted into the subcutaneous space along the dorsal midline under anaesthesia on the right flank via an incision in the scapular region to deliver 1000 ng/kg/min of AngII (A9525, Sigma‐Aldrich) or vehicle in 3‐month‐old mice for four weeks.^[ [68] ^]
For AA evaluation, the aortas were perfused via the left ventricle with ice‐cold EDTA buffer (1 mM) and saline immediately after sacrifice. The aortas were then isolated from the fat and connective tissues under a Zeiss Stemi 305 stereomicroscope and then fixed in 4% PFA. The aorta with or without aneurysm formation was defined according to Daugherty's modified classification.^[ [45] ^] The incidence of AA was determined as follows: mouse number with aortic aneurysm/group mice*100%. The maximum ex vivo diameters of the aortic arch and suprarenal aorta were determined by ImageJ software. For atherosclerosis assessment, atherosclerotic plaque was quantified by measuring the surface area of the Oil Red O‐positive lesions on en face preparation of aortic arches.^[ [14] ^] Briefly, aortic arches were cut longitudinally and immersed in Oil Red O dye solution, followed by being rinsed with 75% ethanol. The ratio of atherosclerotic plaque area to total aortic arch area was quantified by colorimetric analysis using Image J software.^[ [13] ^]
(§2) The serum levels of sclerostin were detected using the sclerostin ELISA kits (R&D, DSST00; Cloud‐Clone, SEC864Mu) in triplicate following the manufacturer's instructions.^[ [14] ^] The serum levels of pro‐inflammatory cytokine and chemokine were measured using TNF‐α ELISA kit (Thermo Fisher BMS607‐3) and MCP‐1 ELISA kit (Thermo Fisher, BMS6005) in triplicate following manufacturer's instructions.^[ [15], [45] ^] The serum levels of anti‐inflammatory cytokine were measured using IL‐10 ELISA kit (Jonlnbio JL20242‐96T) in triplicate following manufacturer's instructions.^[ [15], [45] ^]

[5] = tested on: sost^−/−.ApoE^−/− mice; test: Inflammatory responses in sost^−/−.ApoE^−/− mice with AngII infusion (absence of sclerostin); type: in vivo, mouse; conditions: 10 mg/kg, n = 6, Figure S12F
Method: as §1, §2
Figure S12. […] (A) Serum stability of the modified ApoER2-Pep. […] All tests were two-sided. n = 6 per group. Data were expressed as mean ± standard deviation.

[6] = LPS‐induced macrophages in vitro

## PCRENEFQCGDGTCVLAIKRCNQERDCPDGSDEAGCL [ApoER2‐Pep]
[1]
  Binding of ApoER2 to sclerostin loop2 after pretreatment with the peptide: blocked
[2]; ApoER2‐Pep 2 µM + sclerostin 1 µM for 3 h, LPS 1 µg/mL 18 h, ELISA, n = 3
  Effects of exogenous sclerostin on protein expression/secretion of TNF‐α, MCP‐1 and IL‐10 after pretreatment with the peptide: significantly attenuated
[2]; ApoER2‐Pep 2 µM + sclerostin 1 µM for 3 h, LPS 1 µg/mL 18 h, RT‐PCR, n = 3
  Effects of exogenous sclerostin on mRNA expression of TNF‐α, MCP‐1 and IL‐10 after pretreatment with the peptide: significantly attenuated
[2]; [6]
  Reversal of the promotive effect of sclerostin on IL‐10 mRNA expression: complete reversal
  Reversal of the suppressive effect of sclerostin on MCP‐1 mRNA expression: complete reversal
  Reversal of the suppressive effect of sclerostin on TNF‐α mRNA expression: partial reversal
[3]
  mRNA expression levels of TNF‐α, MCP‐1 and IL‐10, with versus without the peptide: no significant differences
[4]; ELISA
  Serum level of IL‐10: significantly lower
  Serum level of MCP‐1: significantly higher
  Serum level of TNF‐α: significantly higher
[4]
  AA incidence: significantly higher
  Maximum ex vivo diameters of aortic arches and suprarenal aortas: significantly higher
  Ratio of atherosclerotic plaque in aortic arches: significantly higher
[5]
  Effect on inflammatory responses (serum TNF‐α, MCP‐1, IL‐10) in the absence of sclerostin: no effect

— publication PMC12884772, “Macrophagic Sclerostin Loop2‐ApoER2 Interaction Required by Sclerostin for Cardiovascular Protective Action” (Advanced Science, 2025)
